Key:
[1] = system: KCC2 promoter; test: KCC2-LUC luciferase primary screen in primary cortical neurons; type: cell-based, mouse; conditions: rank score, 100 nM, 48 h
Description: Cytosine arabinoside ([…]) was added to cultures on the second day after seeding [2 d in vitro (DIV)] to inhibit the proliferation of non-neuronal cells. Cell suspension was plated at a density of 1×10^6 cells/ml onto 24-well tissue-culture dishes coated with poly-d-lysine.
LUC activity was then determined for each compound. Culture supernatant was removed and cells were lysed with 150 μl lysis buffer (Targeting Systems CA, USA cat. CLR1). LUC activity was measured with a RedLuciferase Assay kit (Targeting Systems cat. FLAR) according to the manufacturer's instructions. A Veritas microplate luminometer was used to measure luminescence; for each treatment triplicates of 40 μl cell lysates (from each 24-well tissue-culture dish) were used and 25 μl substrate was injected per well. […] Relative Light units (RLU) for each treatment was derived from Light Units (compound treatment)/vehicle treatment (0.5% DMSO).
The primary screen encompassed three levels of LUC measurements. […] Each compound was ranked based on composite scores from primary and secondary screening.

[2] = system: KCC2 mRNA; test: Secondary screen: KCC2 RT-qPCR in primary mouse neurons; type: cell-based; conditions: rank score
Description: (§1) The primary screen encompassed three levels of LUC measurements. The first level of screening yielded a total of 137 compounds with cut-off RLU>125% LUC activity. These 137 compounds were subject to second round of screening, which was carried out in duplicate independent assays to yield the top 103 compounds sorted for highest RLU. The 103 compounds were then subjected to a third round of screening carried out in duplicate independent assays to yield the top 40 compounds which were again ranked. The best 22 of these 40 compounds (ranked for highest RLU activity) were subjected to secondary screening: Cultured neurons were treated with the 22 compounds; RT-qPCR and Clomeleon imaging methodologies (Yeo et al., 2009, J Neurosci 29:14652-14662) were used to determine effects of compounds on KCC2 mRNA expression and [Cl—]i, respectively. Each compound was ranked based on composite scores from primary and secondary screening.
Total RNA was isolated from cultured cell samples using Directzol RNA miniprep kit (ZymoResearch). The protocol includes DNAse digestion to exclude genomic DNA from preparations. Total RNA (1 μg) was reverse transcribed using oligo primers (dT) and SuperScriptIII first-strand synthesis kit (Invitrogen). Gene expression was assessed by quantitative real-time PCR using 2×SYBR Green Master Mix (Qiagen) and a three-step cycling protocol (anneal at 60° C./elongate at 72° C., denature at 95° C.). Specificity of primers was verified by dissociation/melting curve for the amplicons when using SYBR Green as a detector. All reactions were performed in triplicates. The amount of target messenger RNA (mRNA) in the experimental group relative to that in the control was determined from the resulting fluorescence and threshold values (Ct) using the ΔΔCt method. βIII-tubulin was used as housekeeping gene.
oligodT-initiated reverse transcription of 1 μg total RNA, DNA-se treated, was subjected to RT-qPCR using primers specific for KCC2 for rat and KCC2 for human sequences, normalized for neuronal βIII-tubulin, as previously described (Yeo et al., 2009, J Neurosci 29:14652-14662). For cultured neurons, total RNA was extracted from pelleted cells, and for spinal cord tissue it was extracted from microdissected lumbar spinal cord dorsal horn.
(§2) To identify KCC2 gene expression enhancing compounds, cultured primary cortical neurons were cultured from KCC2-luciferase(LUC)-knockin (KCC2-LUCki) mice (Liedtke et al., 2013, Small 9:1066-1075; Yeo et al., 2013, Proc Natl Acad Sci USA 110:4315-4320) and used LUC metrics as readout for activity of the proximal KCC2 promoter (2.5 kB (Yeo et al., 2009, J Neurosci 29:14652-14662)), which drives LUC in this mouse transgenic line. A Z′ factor of 0.94 was obtained. This strategy will not select for long-range enhancers of KCC2 gene expression that act outside the 2.5 kB core KCC2 promoter. 1057 compounds, contained in two NCI libraries (FIG. 1), related to inhibition of growth of malignantly transformed cells were screened. Iterative screening followed by measurements of KCC2 mRNA (RT-qPCR) and intracellular chloride ([Cl—]i), using clomeleon chloride indicator protein (Kuner and Augustine, 2000, Neuron 27:447-459; Yeo et al., 2009, J Neurosci 29:14652-14662), led to decreasing numbers of confirmed and re-confirmed hits, and 4 “winner” compounds were selected (FIG. 1 and Table 3).

[3] = system: intracellular chloride ([Cl—]i); test: Secondary screen: Clomeleon chloride imaging in primary mouse neurons; type: cell-based; parameters: chloride reduction (%): concentration or dose not given beside the values; conditions: for Clomeleon Score (duplicates): rank score; for chloride reduction (%): from the [Cl—]i pair of the same line; for chloride [Cl—]i mM: value after compound, control => treated
Description: as §1
(§3) Chloride imaging of primary cultured cortical neurons was conducted as previously described (Kuner and Augustine, 2000, Neuron 27:447-459; Liedtke et al., 2013, Small 9:1066-1075; Yeo et al., 2009, J Neurosci 29:14652-14662). A Clomeleon expression plasmid was transfected into primary cortical neurons by electroporation (Amaxa Nucleofector Device). Transfected neurons were verified by yellow fluorescent protein (YFP) fluorescence, and ratiometric images (excitation at λ=434 nm, dual emission at λ=485 and 535 nm; for resting chloride, six stable frames at […] were captured, which were averaged) were acquired using RATIOTOOL program. Calibration of Clomeleon signals (535 nm/485 nm emission ratio) was performed by using tributyltin-nigericin to establish a standard curve, which was then normalized for measured intraneuronal pH to take into account the pH sensitivity of Clomeleon.
as §2

[4] = system: KCC2; test: Composite score from primary and secondary screening; type: cell-based, mouse; conditions: for Aggregate Score / Top two hits: Mechanistic Compounds; for Aggregate Score / Total Score: sum of the three scores
Description: as §1, §2

[5] = system: neuronal [Cl—]i; test: Clomeleon chloride imaging in rat primary cortical neurons; type: cell-based; conditions: VU0240551 2.5 μM add-on; both vehicle-treated and KP-treated
Description: as §3

[6] = system: nerve injury pain; test: Nerve constriction injury (PSNL) pain model, mechanical withdrawal; type: in vivo, mouse; conditions: day 7; 3 h, 4 h, 5 h after i.t injection
Description: For pain-related behavior, mechanical allodynia was assessed with von Frey filaments (Ugo Basile, Italy). The mice were placed on a 5×5-mm wire-mesh grid floor in individual compartments to avoid visual stimulation and allowed to adapt for 0.5 h prior to the von Frey test. The von Frey filament was then applied to the middle of the plantar surface of the hind paw with 5 g force. The withdrawal responses following the hind paw stimulation were measured at least three times, and the mechanical allodynia, which was defined as an increase in the number of withdrawal responses to the stimulation, was compared.
Thus, in vivo, KP functions as an analgesic when administered systemically in injury-related pain models.
Next, whether the analgesic effects of KP were mediated centrally at the spinal cord level was assessed.
Mechanical withdrawal was measured thresholds after nerve constriction injury (PSNL) (FIG. 12B and FIG. 12C). […] Thus, δ-cat(S276A) spinal transgenesis via AAV9 is sufficient to evoke analgesia after nerve constriction injury, to lesser degree also with δ-cat(WT). Importantly, δ-cat(S276A) spinal transgenesis was accompanied by increased expression of KCC2 in the SCDH. […] Moreover, our discovery points toward a genetically-encoded approach that can be developed for translation into clinical use as an alternative or complement to KP-related small molecules.

Row | SMILES | Luciferase Score (triplicates) ([1]; Mechanistic Compounds) | chloride reduction (%) [3] [%] | chloride [Cl—]i mM [3] | Luciferase Score (triplicates) ([1]; Natural Compounds) | also measured
1 | CC1(C)C(O)OC(O)C1(C)C (stereo not drawn) [3,3,4,4-tetramethyloxolane-2,5-diol, 3,3,4,4-tetramethyl-oxolane-2,5-diol] | 6 | – | – | – | –
2 | Cc1cc(-c2nc3ccccc3s2)ccc1N [4-(1,3-Benzothiazol-2-yl)-2-methylaniline] | 4 | 46.3 | 82 => 38 mM | – | RT-QPCR Score (triplicates) ([2]; Mechanistic Compounds): 5; Clomeleon Score (duplicates) ([3]; Mechanistic Compounds): 4; Aggregate Score [4]: 13
3 | CC(O)CCC(=O)c1ccoc1 (stereo not drawn) [4-Ipomeanol] | 3 | 43.2 | 74 => 32 mM | – | RT-QPCR Score (triplicates) ([2]; Mechanistic Compounds): 2; Clomeleon Score (duplicates) ([3]; Mechanistic Compounds): 3; Aggregate Score [4]: 8
4 | N=C1N=CN=C2C([C@@H]3O[C@H](CO)[C@@H](O)[C@H]3O)=CN=C12 [9-Deazaadenosine] | 2 | 48.8 | 82 => 40 mM | – | RT-QPCR Score (triplicates) ([2]; Mechanistic Compounds): 4; Clomeleon Score (duplicates) ([3]; Mechanistic Compounds): 5; Aggregate Score [4]: 11
5 | CC(=O)/C(=C\c1cccc([N+](=O)[O-])c1)C(=O)Nc1ccccc1C [(2E)-N-(2-methylphenyl)-2-[(3-nitrophenyl)methylidene]-3-oxobutanamide] | 5 | – | – | – | –
6 | CC(=O)Nc1ccc(-c2nc3ccccc3s2)cc1 [NSC33006, N-[4-(1,3-benzothiazol-2-yl)phenyl]acetamide] | 2 | 37.8 | 74 => 28 mM | – | RT-QPCR Score (triplicates) ([2]; Mechanistic Compounds): 1; Clomeleon Score (duplicates) ([3]; Mechanistic Compounds): 2; Top two hits [4]: winner; Aggregate Score [4]: 5
7 | Cc1ccc(NC(=O)c2cccc([N+](=O)[O-])c2O)c(C)c1 [NSC79456, n-(2,4-Dimethylphenyl)-2-hydroxy-3-nitrobenzamide] | 1 | 32.4 | 74 => 24 mM | – | RT-QPCR Score (triplicates) ([2]; Mechanistic Compounds): 3; Clomeleon Score (duplicates) ([3]; Mechanistic Compounds): 1; Top two hits [4]: winner; Aggregate Score [4]: 5
8 | CC(=O)C1CCCC(=O)C=CC(=O)O1 (stereo not drawn) [NSC180515, 2-Acetyl-2,3,4,5-tetrahydrooxonine-6,9-dione] | – | 32 | 68 => 22 mM | 4 | RT-QPCR Score (triplicates) ([2]; Natural Compounds): 1; Clomeleon Score (duplicates) ([3]; Natural Compounds): 1; Top 2 hits ([4]; Natural Compounds): winner; Total Score ([4]; Natural Compounds): 6
9 | NC(=O)c1cn(C2OC(CO)C(O)C2O)c2ncnc(N)c12 (stereo not drawn) [Sauzivamycin] | 6 | – | – | – | –
10 | Cc1csc(NC(=O)CSc2ccc(-c3ccccc3)nn2)n1 [VU0240551] | – | – | – | – | [Cl—]i with add-on KCC2-transport blocker [5]: ≥ 120 mM; effect of i.t co-application with KP on KP analgesia [6]: eliminates the central analgesic effects of KP
11 | COc1ccc(C[C@H]2NC[C@H](O)[C@H]2OC(C)=O)cc1 [anisomycine] | – | 57.3 | 75 => 43 mM | 3 | RT-QPCR Score (triplicates) ([2]; Natural Compounds): 4; Clomeleon Score (duplicates) ([3]; Natural Compounds): 6; Total Score ([4]; Natural Compounds): 13
12 | C[C@@]12C(=O)OC(=O)[C@]1(C)[C@H]1CC[C@@H]2O1 [cantharidine] | – | 48.5 | 68 => 33 mM | 6 | RT-QPCR Score (triplicates) ([2]; Natural Compounds): 6; Clomeleon Score (duplicates) ([3]; Natural Compounds): 3; Total Score ([4]; Natural Compounds): 15
13 | COc1cc2c(c(OC)c1OC)-c1ccc(OC)c(=O)cc1[C@@H](NC(C)=O)CC2 [colchicine] | – | – | – | 10 | –
14 | CC1(C)CCC[C@]2(C)C3=C(CC[C@@H]12)C(=O)OC3 [confertifoline] | – | 56 | 75 => 42 mM | 1 | RT-QPCR Score (triplicates) ([2]; Natural Compounds): 5; Clomeleon Score (duplicates) ([3]; Natural Compounds): 5; Total Score ([4]; Natural Compounds): 11
15 | CC(=O)N1CCN(c2ccc(OCC3COC(Cn4ccnc4)(c4ccc(Cl)cc4Cl)O3)cc2)CC1 (stereo not drawn) [ketoconazole] | – | – | – | 9 | –
16 | COc1cc([C@@H]2c3cc4c(cc3[C@H](O[C@@H]3O[C@@H]5COC(c6ccccc6)O[C@H]5[C@H](O)[C@H]3O)[C@H]3COC(=O)[C@H]23)OCO4)cc(OC)c1OC (stereo partly drawn) [proresidor] | – | – | – | 9 | –
17 | COc1cc2c3c(c4ccc(OC)c(OC)c4c2cc1OC)CN1CCC[C@H]1C3 [tylocrebrine] | – | 52 | 75 => 39 mM | 5 | RT-QPCR Score (triplicates) ([2]; Natural Compounds): 3; Clomeleon Score (duplicates) ([3]; Natural Compounds): 4; Total Score ([4]; Natural Compounds): 12
18 | COc1ccc(C(=O)O[C@H]2CC[C@@]3(C)[C@@H]4CC[C@H]5[C@]6(O)C[C@H](O)[C@@]7(O)[C@@H](CN8C[C@@H](C)CC[C@H]8[C@@]7(C)O)[C@]6(O)C[C@@]53O[C@]24O)cc1OC [veratridine] | – | – | – | 7 | –

Reference: US20220281930A1, “COMPOSITIONS AND METHODS FOR THE TREATMENT OF PATHOLOGICAL PAIN AND ITCH” (DUKE UNIVERSITY, priority 2019, published 2022)
